“Also recorded” adds a separate entry of the source. Like-named read-outs stand apart in the source and are kept apart here.
Tests used:
WT CB2 [1] = biological target: T1, WT CB2 (Homo sapiens, UniProt P34972); assay: pGlo-Sensor-22F cAMP accumulation assay, WT CB2; assay type: cell-based; settings: for EC50: agonist dose-response on CB2, vehicle control (no Ec2la), read-out: pEC50/pIC50 values (converted)
T1 construct: expressed in transfected cells; host or cells: HEK293
From the text: Compounds were drawn using ChemDraw.

CB2 mutant L160A = CB2 mutant L160A (Homo sapiens, UniProt P34972, L160A); assay: cAMP accumulation assay, CB2 mutant L160A; settings: in the presence of JWH133
Sequence of CB2 mutant L160A (P34972 whole entry L160A): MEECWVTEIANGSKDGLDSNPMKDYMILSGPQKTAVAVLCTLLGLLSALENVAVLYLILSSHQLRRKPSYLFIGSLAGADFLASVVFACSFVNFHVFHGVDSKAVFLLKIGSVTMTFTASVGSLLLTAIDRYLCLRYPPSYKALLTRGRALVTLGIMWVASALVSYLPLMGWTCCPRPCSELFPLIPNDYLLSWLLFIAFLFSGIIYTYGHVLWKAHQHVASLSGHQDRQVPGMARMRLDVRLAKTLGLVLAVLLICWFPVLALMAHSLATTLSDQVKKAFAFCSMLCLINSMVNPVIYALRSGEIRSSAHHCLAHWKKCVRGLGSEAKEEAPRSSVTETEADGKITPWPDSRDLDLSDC
From the text: (§2) Primers were designed for the following mutations: F72^2.42A, L125^3.44A, L126^3.45A, I129^3.48A, L133^3.52A, T153^4.45A, I156^4.48A, M157^4.49A, L160^4.52A, F197^5.46A, and L201^5.50A (Table S3). Polymerase chain reactions (PCR) using the Bio-Rad T100TM Thermal Cycler and Applied Biosystems Veriti 96 Well Thermal Cycler to introduce the desired mutations within 3× HA-CB2 (cDNA).
(§3) HEK293 (ATCC CRL-1573) adherent cells were passaged using Dulbecco’s Modified Eagle’s Medium (DMEM)-high glucose (Sigma-Aldrich). This DMEM was supplemented with penicillin (100 U/mL), streptomycin (100 μg/mL), and heat inactivated fetal bovine serum (FBS, 10%) (PAN-Biotech). […]
(§4) After 24 h of incubation, the transfected HEK293 cells were then subject to starvation (2 h) with serum-free DMEM (100 μL/well). […] Bioluminescence was then measured using the CLARIOstar Plus Plate Reader (BMG LabTech, Germany). Prior to injecting the treatment ligands, approximately 5–10 basal readings were performed until stabilization was reached. Bioluminescence was measured for a total of 45 cycles (1 min per cycle, 1 s integration time, without filter, a fixed gain of 3000 and autofocus).
(§5) Data from signaling experiments were analyzed using GraphPad Prism, version 9.4.1 software (GraphPad Software, Inc.). […]

CB2 mutant T153A = CB2 mutant T153A (Homo sapiens, UniProt P34972, T153A); assay: cAMP accumulation assay, CB2 mutant T153A; settings: in the presence of JWH133
Sequence of CB2 mutant T153A (P34972 whole entry T153A): as the sequence (P34972 whole entry L160A) above, with T153A, A160L counted along it
From the text: as §2, §3, §4, §5

CB2 mutant L126A = CB2 mutant L126A (Homo sapiens, UniProt P34972, L126A); assay: cAMP accumulation assay, CB2 mutant L126A; settings: in the presence of JWH133
Sequence of CB2 mutant L126A (P34972 whole entry L126A): as the sequence (P34972 whole entry L160A) above, with L126A, A160L counted along it
From the text: as §2, §3, §4, §5

CB2 mutant M157A = CB2 mutant M157A (Homo sapiens, UniProt P34972, M157A); assay: cAMP accumulation assay, CB2 mutant M157A; settings: in the presence of JWH133
Sequence of CB2 mutant M157A (P34972 whole entry M157A): as the sequence (P34972 whole entry L160A) above, with M157A, A160L counted along it
From the text: as §2, §3, §4, §5

CB2 mutant L125A = CB2 mutant L125A (Homo sapiens, UniProt P34972, L125A); assay: cAMP accumulation assay, CB2 mutant L125A; settings: in the presence of JWH133
Sequence of CB2 mutant L125A (P34972 whole entry L125A): as the sequence (P34972 whole entry L160A) above, with L125A, A160L counted along it
From the text: as §2, §3, §4, §5

CB2 mutant I129A = CB2 mutant I129A (Homo sapiens, UniProt P34972, I129A); assay: cAMP accumulation assay, CB2 mutant I129A; settings: in the presence of JWH133
Sequence of CB2 mutant I129A (P34972 whole entry I129A): as the sequence (P34972 whole entry L160A) above, with I129A, A160L counted along it
From the text: as §2, §3, §4, §5

CB2 mutant F197A = CB2 mutant F197A (Homo sapiens, UniProt P34972, F197A); assay: cAMP accumulation assay, CB2 mutant F197A; settings: in the presence of JWH133
Sequence of CB2 mutant F197A (P34972 whole entry F197A): as the sequence (P34972 whole entry L160A) above, with A160L, F197A counted along it
From the text: as §2, §3, §4, §5

CB2 mutant L133A = CB2 mutant L133A (Homo sapiens, UniProt P34972, L133A); assay: cAMP accumulation assay, CB2 mutant L133A; settings: in the presence of JWH133
Sequence of CB2 mutant L133A (P34972 whole entry L133A): as the sequence (P34972 whole entry L160A) above, with L133A, A160L counted along it
From the text: as §2, §3, §4, §5

CB1 = tested on: CB1; set-up: method as in PMID 29990428; settings: CB1, Chinese hamster ovary cells; cited from earlier work
CB2 double mutants = assay: AlphaLISA SureFire Ultra p-ERK 1/2 assay, CB2 double mutants; assay type: cell-based, human; settings: 1 μM JWH133 + 10 μM Ec2la
Description: (§1) Culture media were removed and replaced with allosteric modulator (45 μL/well) prepared in serum-free DMEM and incubated (RT, 30 min). The cells were then stimulated with agonist (5 μL/well) prepared in serum-free DMEM and incubated (RT, 10 min). All subsequent reagents were used from the AlphaLISA SureFire Ultra p-ERK 1/2 (Thr202/Tyr204) Assay Kit (PerkinElmer). The medium was removed, freshly prepared 1× lysis buffer (50 μL/well) was added, and the plate was agitated on a plate shaker (RT, 10 min, 350 rpm). The lysates (10 μL) were transferred to a 384-well OptiPlate (PerkinElmer), and the acceptor mix (5 μL) was added to each well under subdued light. The plate was sealed, covered with foil, and incubated (RT, 1 h). Donor mix (5 μL) was added to each well under subdued light. The plate was sealed, covered with foil, and incubated in the dark (RT, 1 h). The plate was read using CLARIOstar Plus Plate Reader (BMG LabTech, Germany) using standard AlphaLISA settings with an […].

WT CB2 [2] = biological target: T1, WT CB2; assay: AlphaLISA SureFire Ultra p-ERK 1/2 assay, WT CB2; assay type: cell-based; settings: 1 μM JWH133 + 10 μM Ec2la
Description: as §1

CB2 single mutants = assay: AlphaLISA SureFire Ultra p-ERK 1/2 assay, CB2 single mutants; assay type: cell-based, human; settings: 1 μM JWH133 + 10 μM Ec2la
Description: as §1

CB2 mutant F72A = CB2 mutant F72A (Homo sapiens, UniProt P34972, F72A); assay: cAMP accumulation assay, CB2 mutant F72A; settings: in the presence of JWH133
Sequence of CB2 mutant F72A (P34972 whole entry F72A): as the sequence (P34972 whole entry L160A) above, with F72A, A160L counted along it
From the text: as §2, §3, §4, §5

CB2 [3] = tested on: CB2; set-up: method as in PMID 29990428; settings: agonists CP 55,940 and 2-AG; cited from earlier work
CB2 mutant L201A = CB2 mutant L201A (Homo sapiens, UniProt P34972, L201A); assay: cAMP accumulation assay, CB2 mutant L201A; settings: in the presence of JWH133
Sequence of CB2 mutant L201A (P34972 whole entry L201A): as the sequence (P34972 whole entry L160A) above, with A160L, L201A counted along it
From the text: as §2, §3, §4, §5

CB2 [4] = tested on: CB2; set-up: method as in PMID 29990428; settings: CB2, Chinese hamster ovary cells; cited from earlier work
CB1 receptor [5] = tested on: CB1 receptor; set-up: method as in PMID 22343625; settings: cited from earlier work
CB1 receptor [6] = tested on: CB1 receptor; set-up: method as in PMID 22343625; settings: CB1, in the presence of orthosteric ligand CP 55,940; cited from earlier work

T1 sequence (P34972 whole entry): as the sequence (P34972 whole entry L160A) above, with A160L counted along it

SMILES: CCCCC/C=C\C/C=C\C/C=C\C/C=C\CCCC(=O)OC(CO)CO [2-AG, 2-arachidonoylglycerol]
- EC50 (WT CB2 [1]; Figure S2): 48.3 nM
- EC50 (WT CB2 [1]; Figure S3): 202 nM

SMILES: C=C(C)[C@@H]1CCC(C)=C[C@H]1c1c(O)cc(CCCCC)cc1O [CBD, Cannabidiol]
- allosteric signal in cAMP assay (CB2 mutant L160A): still demonstrating an allosteric effect
- allosteric signal in cAMP assay (CB2 mutant T153A): still demonstrating an allosteric effect
- allosteric effect on cAMP signaling (WT CB2 [1]): acts as a NAM
- orthosteric activity in cAMP assay (WT CB2 [1]): acting as an agonist
- allosteric signal in cAMP assay (CB2 mutant L126A): loss and/or alteration in the allosteric signal
- allosteric signal in cAMP assay (CB2 mutant M157A): loss and/or alteration in the allosteric signal
- allosteric signal in cAMP assay (CB2 mutant L125A): loss and/or alteration in the allosteric signal
- allosteric signal in cAMP assay (CB2 mutant I129A): loss and/or alteration in the allosteric signal
- allosteric signal in cAMP assay (CB2 mutant F197A): loss and/or alteration in the allosteric signal

SMILES: Cc1c(Br)cn(Cc2ccc(F)cc2)c(=O)c1NC(=O)C1CCCCCC1 [Ec2la]
- allosteric signal in cAMP assay (CB2 mutant L160A): loss and/or alteration in allosteric signal
- allosteric signal in cAMP assay (CB2 mutant L133A): loss and/or alteration in allosteric signal
- allosteric signal in cAMP assay (CB2 mutant T153A): still demonstrating an allosteric effect
- allosteric effect on cAMP signaling (WT CB2 [1]): possible PAM-antagonistic effect; also recorded: acts as a PAM
- allosteric effect on cAMP signaling at nanomolar concentrations (WT CB2 [1]): did not demonstrate an allosteric effect; also recorded: no allosteric effect
- allosteric effect on cAMP signaling (WT CB2 [1]; WT CB2, in the presence of 2-AG, Ec2la 1 and 10 μM): negative allosteric effect; also recorded: negative allosteric shift
- allosteric effect on cAMP signaling (WT CB2 [1]; WT CB2, in the presence of CP 55,940, Ec2la 1 and 10 μM): slight negative allosteric effect; also recorded: negative allosteric shift
- allosteric effect on cAMP signaling (WT CB2 [1]; WT CB2, in the presence of JWH133, modulator 0.1, 1, 10 μM): acts like a NAM
- modality in [3H]CP 55,940 binding studies (CB1): PAM
- allosteric signal in cAMP assay (CB2 mutant L126A): loss and/or alteration in allosteric signal
- allosteric effect on p-ERK 1/2 signaling (CB2 double mutants): either no effect to the allosteric modulator-induced changes on the signal or a slight decrease in the signal
- allosteric effect on p-ERK 1/2 signaling (WT CB2 [2]): acts as a NAM
- allosteric signal in cAMP assay (CB2 mutant M157A): loss and/or alteration in allosteric signal
- allosteric effect on p-ERK 1/2 signaling (CB2 single mutants): either no effect or an increase in the p-ERK 1/2 signal
- allosteric signal in cAMP assay (CB2 mutant L125A): still demonstrating an allosteric effect
- allosteric signal in cAMP assay (CB2 mutant I129A): loss and/or alteration in allosteric signal
- allosteric signal in cAMP assay (CB2 mutant F72A): loss and/or alteration in allosteric signal
- allosteric signal in cAMP assay (CB2 mutant F197A): loss and/or alteration in allosteric signal
- effect on agonist-stimulated [35S]GTPγS binding (CB2 [3]): greatly enhanced
- allosteric signal in cAMP assay (CB2 mutant L201A): still demonstrating an allosteric effect
- modality in [3H]CP 55,940 binding studies (CB2 [4]): PAM

SMILES: CCc1c(C(=O)NCCc2ccc(N3CCCCC3)cc2)[nH]c2ccc(Cl)cc12 [ORG27569]
- allosteric effect in ERK 1/2 signaling (CB1 receptor [5]): positive allosteric effect
- allosteric effect with radioligand binding (CB1 receptor [6]): negative allosteric effect
